One assay deals with cynomolgus monkey DPP9 (Macaca fascicularis, UniProt A0A2K5TQ54). Description: Steady-state inhibition of isolated cloned DPP9 at 37°C (gly-pro-pNA). The assay is classed as biochemical. The note with it: mean ± SD (n). The procedure: (§1) All solutions were preheated to 37°C.
(§2) DPP8 and DPP9 were tested under identical conditions.

Assay [1] deals with plasma DPP activity. Put plainly: Cynomolgus monkey ex vivo plasma DPP inhibition, gly-pro-pNA assay. Format: in vivo. The note with it: cynomolgus monkeys, single oral doses, 24 hours post dose, same samples. On the procedure: (§3) Male and female cynomolgus monkeys (Charles River BRF, Houston, TX), were housed in an AAALAC-accredited facility (on a 12-hour light/dark cycle) in stainless-steel cages. They had access to purified tap water ad libitum and were fed Harlan Diet 2050 C (Certified 20% protein primate diet). […]. Doses were administered once weekly using a crossover design such that no monkeys received the same dose twice. For the ex vivo cynomolgus monkey assays, blood samples (approximately 0.5 ml) were collected prior to dosing and 1, 2, 4, 6, 8, and 24 hours post dosing in tubes containing K2EDTA. Tubes were inverted several times to ensure mixing, and placed on ice. Samples were centrifuged at 5000 rpm for 10 minutes at 4°C for plasma isolation. Plasma was stored at -20°C until analyzed for DPP activity. No difference in DPP inhibition was noted between males and females and so data were combined for analyses.
This assay was reported by Merck as used in their clinical trials, using gly-pro-pNA as substrate. […] Activity, the rate of release of free pNA from the pseudo-substrate, was assayed at 30°C, using a Spectramax 340 plate reader ([…]) with rate determining software. Absorbance at 390 nm was measured. Results were expressed as arbitrary units because standard pNA curves were not run for all experiments. The extent of DPP inhibition and IC50 values were calculated as described above.

The target in the next assay is cynomolgus monkey DPP8 (Macaca fascicularis, UniProt A0A2K5VHB7). Put plainly: Steady-state inhibition of isolated cloned DPP8 at 37°C (gly-pro-pNA). Format: biochemical. The note with it: mean ± SD (n). The procedure:
as §1, §2

Assay [2] concerns plasma DPP activity. Description: Cynomolgus monkey ex vivo plasma DPP inhibition, ala-pro-AFC assay. The assay is classed as in vivo. The following applies: cynomolgus monkeys, single oral doses, 24 hours post dose. The procedure: as §3
(§4) This procedure produced a 3-fold dilution of plasma.

Assay [3] addresses cynomolgus monkey plasma DPP activity (Macaca fascicularis, UniProt A0A2K5VXJ1). Description: Ala-pro-AFC plasma DPP inhibition assay in vitro. The assay is classed as biochemical.
Text: as §4

For another assay, the target named is T1, human DPP9 (Homo sapiens, UniProt Q86TI2).
T1 construct: made in house
Description: Steady-state inhibition of isolated cloned DPP9 at 37°C (gly-pro-pNA). Format: biochemical. On the procedure: (§5) All solutions were preheated to 37°C. Inhibitors were preincubated with enzyme for 40 minutes prior to assay initiation. […] Softmax Pro software from Molecular Devices (Sunnyvale, CA) was used to obtain the initial slope of the reaction in each well, and the fits were inspected to insure that the reactions were linear to a correlation coefficient of 0.99. An Excel template with XLFit (IDBS, Guildford, U.K.) was used for determination of the IC50 for inhibition at each substrate concentration. […] Therefore, IC50 was then converted to Ki assuming competitive inhibition according to:
(§6) The calculated Ki values for competitive inhibition at each substrate concentration were averaged and reported. DPP8 and DPP9 were tested under identical conditions. The in vitro assays were also used to determine substrate Km, by varying substrate concentration across an appropriate range. Km was calculated using GraFit software (Erithacus, Surrey U.K.)

Another assay addresses T2, cynomolgus monkey DPP4 (UniProt A0A075TEP6).
T2 construct: made in house
Description: Steady-state inhibition of isolated cloned DPP4 at 37°C (gly-pro-pNA). The assay is classed as biochemical. The note with it: mean ± SD (n). The procedure: as §1, §2

Another assay has as its target T3, human DPP8 (Homo sapiens, UniProt Q6V1X1).
T3 construct: made in house
Description: Steady-state inhibition of isolated cloned DPP8 at 37°C (gly-pro-pNA). The assay is classed as biochemical. The procedure:
as §5, §6

Where [4] appears, read: human, 37°C, gly-pro-pNA, mean ± SD (n).

Chain of cynomolgus monkey DPP8 (A0A2K5VHB7 1-898): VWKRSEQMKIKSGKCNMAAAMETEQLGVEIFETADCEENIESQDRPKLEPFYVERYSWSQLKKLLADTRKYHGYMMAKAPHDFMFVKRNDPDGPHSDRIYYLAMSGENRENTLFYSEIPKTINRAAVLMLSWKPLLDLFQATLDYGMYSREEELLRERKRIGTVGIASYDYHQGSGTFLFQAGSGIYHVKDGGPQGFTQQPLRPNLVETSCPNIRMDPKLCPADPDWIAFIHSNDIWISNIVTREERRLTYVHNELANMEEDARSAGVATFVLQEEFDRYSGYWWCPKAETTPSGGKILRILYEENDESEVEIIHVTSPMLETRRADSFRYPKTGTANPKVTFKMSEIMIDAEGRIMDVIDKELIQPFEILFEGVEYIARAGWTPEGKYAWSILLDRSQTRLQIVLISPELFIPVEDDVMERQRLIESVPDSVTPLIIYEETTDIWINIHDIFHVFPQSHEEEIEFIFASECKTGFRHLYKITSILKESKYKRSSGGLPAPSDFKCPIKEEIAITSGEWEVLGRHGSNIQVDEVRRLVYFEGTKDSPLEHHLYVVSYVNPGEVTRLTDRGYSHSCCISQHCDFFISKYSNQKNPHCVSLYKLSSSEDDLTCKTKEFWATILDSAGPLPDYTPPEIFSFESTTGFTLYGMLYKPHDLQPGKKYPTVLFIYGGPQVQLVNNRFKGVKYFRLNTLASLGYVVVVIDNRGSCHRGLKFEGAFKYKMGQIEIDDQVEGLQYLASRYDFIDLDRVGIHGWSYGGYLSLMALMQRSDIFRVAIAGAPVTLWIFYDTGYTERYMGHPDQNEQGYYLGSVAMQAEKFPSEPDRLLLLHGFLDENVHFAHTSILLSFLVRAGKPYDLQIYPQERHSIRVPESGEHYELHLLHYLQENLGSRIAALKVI
Chain of cynomolgus monkey DPP9 (A0A2K5TQ54 156-951): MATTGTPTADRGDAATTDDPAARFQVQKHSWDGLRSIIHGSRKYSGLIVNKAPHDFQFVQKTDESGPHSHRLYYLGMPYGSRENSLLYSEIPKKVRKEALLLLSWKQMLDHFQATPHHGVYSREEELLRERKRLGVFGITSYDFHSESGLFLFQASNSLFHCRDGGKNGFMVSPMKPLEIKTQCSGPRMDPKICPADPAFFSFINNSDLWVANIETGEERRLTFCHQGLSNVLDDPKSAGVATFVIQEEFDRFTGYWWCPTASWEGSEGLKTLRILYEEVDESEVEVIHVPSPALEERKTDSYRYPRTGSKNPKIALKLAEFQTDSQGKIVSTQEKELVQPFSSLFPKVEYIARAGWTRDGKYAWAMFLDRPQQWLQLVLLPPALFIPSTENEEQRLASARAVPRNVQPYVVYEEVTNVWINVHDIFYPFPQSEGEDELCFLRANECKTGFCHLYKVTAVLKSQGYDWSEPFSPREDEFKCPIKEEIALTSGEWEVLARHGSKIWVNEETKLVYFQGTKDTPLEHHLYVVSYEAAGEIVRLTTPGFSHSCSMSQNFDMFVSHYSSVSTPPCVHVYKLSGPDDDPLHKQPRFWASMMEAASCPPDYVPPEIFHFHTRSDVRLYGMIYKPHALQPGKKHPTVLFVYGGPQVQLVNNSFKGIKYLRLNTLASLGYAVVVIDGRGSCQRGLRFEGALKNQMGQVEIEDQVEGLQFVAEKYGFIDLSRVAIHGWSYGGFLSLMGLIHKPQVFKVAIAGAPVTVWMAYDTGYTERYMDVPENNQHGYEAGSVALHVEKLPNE
T3 sequence (Q6V1X1 whole entry): as the sequence (A0A2K5VHB7 1-898) above, with V1M, M357I, S605P, L609P, D823N counted along it
T1 sequence (Q86TI2 whole entry): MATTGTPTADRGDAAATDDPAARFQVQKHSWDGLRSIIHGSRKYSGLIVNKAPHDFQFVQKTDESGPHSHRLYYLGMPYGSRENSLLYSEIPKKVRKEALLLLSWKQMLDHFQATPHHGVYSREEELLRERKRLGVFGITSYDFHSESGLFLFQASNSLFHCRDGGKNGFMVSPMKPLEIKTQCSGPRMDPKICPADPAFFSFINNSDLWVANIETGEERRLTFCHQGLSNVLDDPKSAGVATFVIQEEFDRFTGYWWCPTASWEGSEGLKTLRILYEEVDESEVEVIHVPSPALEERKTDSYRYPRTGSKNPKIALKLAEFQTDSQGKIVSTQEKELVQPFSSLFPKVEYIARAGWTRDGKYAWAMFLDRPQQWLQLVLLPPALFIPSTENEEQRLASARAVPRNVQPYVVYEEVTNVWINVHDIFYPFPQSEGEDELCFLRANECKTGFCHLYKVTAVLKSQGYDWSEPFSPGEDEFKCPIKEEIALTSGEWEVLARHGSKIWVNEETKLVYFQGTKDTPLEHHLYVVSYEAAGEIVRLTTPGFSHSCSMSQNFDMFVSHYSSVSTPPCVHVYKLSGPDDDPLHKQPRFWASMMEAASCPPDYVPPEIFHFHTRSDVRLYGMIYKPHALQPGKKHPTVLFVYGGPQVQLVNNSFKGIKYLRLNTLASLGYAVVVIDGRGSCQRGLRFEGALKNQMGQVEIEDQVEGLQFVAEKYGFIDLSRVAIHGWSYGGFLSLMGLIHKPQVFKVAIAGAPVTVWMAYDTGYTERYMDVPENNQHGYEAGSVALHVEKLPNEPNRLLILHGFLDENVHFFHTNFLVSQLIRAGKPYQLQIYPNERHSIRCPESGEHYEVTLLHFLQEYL
Chain of cynomolgus monkey plasma DPP activity (A0A2K5VXJ1 39-766): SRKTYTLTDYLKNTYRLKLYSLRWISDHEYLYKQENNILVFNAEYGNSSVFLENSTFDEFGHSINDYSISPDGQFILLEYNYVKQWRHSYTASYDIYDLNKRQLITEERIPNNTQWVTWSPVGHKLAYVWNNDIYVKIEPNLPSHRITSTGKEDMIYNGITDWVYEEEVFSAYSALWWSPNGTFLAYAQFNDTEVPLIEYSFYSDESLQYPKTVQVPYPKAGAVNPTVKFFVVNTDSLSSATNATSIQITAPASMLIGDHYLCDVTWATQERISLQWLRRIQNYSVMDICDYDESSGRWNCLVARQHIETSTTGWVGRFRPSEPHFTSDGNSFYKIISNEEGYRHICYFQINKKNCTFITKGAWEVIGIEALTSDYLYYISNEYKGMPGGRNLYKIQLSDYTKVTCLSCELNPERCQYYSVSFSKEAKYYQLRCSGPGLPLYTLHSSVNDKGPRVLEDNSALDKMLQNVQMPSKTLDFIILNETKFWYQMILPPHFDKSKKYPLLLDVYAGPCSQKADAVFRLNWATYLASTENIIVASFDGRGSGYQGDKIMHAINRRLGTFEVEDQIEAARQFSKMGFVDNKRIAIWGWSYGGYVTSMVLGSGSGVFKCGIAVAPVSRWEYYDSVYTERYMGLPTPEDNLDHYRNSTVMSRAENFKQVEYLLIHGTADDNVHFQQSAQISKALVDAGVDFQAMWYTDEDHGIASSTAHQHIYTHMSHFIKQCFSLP
T2 sequence (A0A075TEP6 1-766): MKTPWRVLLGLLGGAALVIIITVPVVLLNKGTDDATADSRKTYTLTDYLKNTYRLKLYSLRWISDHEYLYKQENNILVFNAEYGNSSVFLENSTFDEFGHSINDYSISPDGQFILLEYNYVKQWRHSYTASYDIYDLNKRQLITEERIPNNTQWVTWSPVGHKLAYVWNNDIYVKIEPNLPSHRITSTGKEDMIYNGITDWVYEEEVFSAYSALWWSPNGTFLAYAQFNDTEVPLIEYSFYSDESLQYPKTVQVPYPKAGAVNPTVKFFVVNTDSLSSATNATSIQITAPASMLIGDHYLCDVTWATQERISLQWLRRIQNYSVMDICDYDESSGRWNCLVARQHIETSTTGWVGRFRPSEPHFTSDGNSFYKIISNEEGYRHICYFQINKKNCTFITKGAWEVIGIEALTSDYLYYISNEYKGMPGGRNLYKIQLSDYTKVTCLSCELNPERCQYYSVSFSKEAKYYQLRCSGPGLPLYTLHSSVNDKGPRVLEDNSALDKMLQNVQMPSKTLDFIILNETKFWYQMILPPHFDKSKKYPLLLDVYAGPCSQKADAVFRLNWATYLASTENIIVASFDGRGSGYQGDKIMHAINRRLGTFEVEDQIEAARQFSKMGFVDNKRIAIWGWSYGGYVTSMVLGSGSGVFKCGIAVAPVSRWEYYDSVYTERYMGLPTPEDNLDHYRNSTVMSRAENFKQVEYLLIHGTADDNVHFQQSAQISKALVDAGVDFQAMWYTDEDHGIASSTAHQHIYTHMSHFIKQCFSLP

With `N[C@@H](CC(=O)N1CCn2c(nnc2C(F)(F)F)C1)Cc1cc(F)c(F)cc1F` [Sitagliptin, reference compound], the inhibition constant (Ki) came out at 65800 ± 7970 nM on cynomolgus monkey DPP9 and 21900 ± 17500 nM on cynomolgus monkey DPP8. The “plasma DPP inhibition ex vivo” value in the assay on plasma DPP activity [1] was “statistically significant inhibition of plasma DPP activity at 3, 10 and 40 mg/kg doses”; in the assay on plasma DPP activity [2], “no effect on plasma DPP activity at any of the doses”. For the same compound, the “increase of IC50 in the ala-pro-AFC assay compared to the gly-pro-pNA assay” value in assay [3] was 26 fold.

For `N#C[C@@H]1C[C@@H]2C[C@@H]2N1C(=O)[C@@H](N)C12CC3CC(O)(CC(O)(C3)C1)C2` [5-hydroxysaxagliptin], on human DPP9, the “slow binding kinetics to DPP9” value is “Neither saxagliptin nor 5-hydroxysaxagliptin exhibited slow binding kinetics”. The inhibition constant Ki is 423 ± 64 nM on human DPP9 (setting [4]); 2.9 ± 1.1 nM on cynomolgus monkey DPP4; 323 ± 60 nM at cynomolgus monkey DPP9; 2060 ± 658 nM on cynomolgus monkey DPP8; 2500 ± 727 nM at human DPP8 (setting [4]). The “slow binding kinetics to DPP8” value at human DPP8 is given as “Neither saxagliptin nor 5-hydroxysaxagliptin exhibited slow binding kinetics”.

On cynomolgus monkey DPP9, `N#C[C@@H]1CCCN1C(=O)CNC12CC3CC(CC(O)(C3)C1)C2` [Vildagliptin, reference compound] had a Ki of 125 ± 39 nM.

On to `N#C[C@@H]1C[C@@H]2C[C@@H]2N1C(=O)[C@@H](N)C12CC3CC(CC(O)(C3)C1)C2` [Saxagliptin, (1 S,3 S,5 S)-2-[(2 S)-2-Amino-2-(3-hydroxytricyclo[3.3.1.1^3,7]dec-1-yl)acetyl]-2-azabicyclo[3.1.0]hexane-3-carbonitrile, monohydrate], for which the Ki was 61 ± 5 nM on cynomolgus monkey DPP9 and 390 ± 82 nM on cynomolgus monkey DPP8. Further, in the assay with plasma DPP activity [2], the “plasma DPP inhibition ex vivo” value is reported as “close to maximal inhibition of the inhibitable plasma DPP activity at its highest doses”.

Source of the values: publication PMC3373380 (BMC Pharmacology, 2012).
